Earlier results in patent publication US20220265792A1, “METHODS FOR TREATING SOLID TUMORS” (Breakbio Corp., priority 2019, published 2022).

Columns and labels:
Treg cells = conditions: 50 mg bid seven days, seven days off, another seven days of 50 mg bid
Renal Cell Carcinoma = conditions: human, in vivo
mCRC patients = conditions: 20 μg/Kg/day for 14 days, 1 to 3 cycles

Molecule: O=P1(N(CCCl)CCCl)NCCCO1 (racemic) [cyclophosphamide, (RS)—N,N-bis(2-chloroethyl)-1,3,2-oxazaphosphinan-2-amine 2-oxide]
- effect on Treg cells (Treg cells): significantly depleted Treg cells

Molecule: COc1cc2nccc(Oc3ccc(NC(=O)NC4CC4)c(Cl)c3)c2cc1C(N)=O [Lenvatinib]
- clinical effect as monotherapy (colorectal cancer): modest clinical effect

Molecule: CNC(=O)c1cc(Oc2ccc(NC(=O)Nc3ccc(Cl)c(C(F)(F)F)c3)c(F)c2)ccn1 [regorafenib]
- clinical activity as single agent (lung, pancreatic): modest clinical activity

Molecule: Bevacizumab: monoclonal antibody binding circulating VEGF-A
- intra-tumoral T-cell infiltration (Renal Cell Carcinoma): augmented intra-tumoral T-cell infiltration

B1: FLT3L: FMS-like tyrosine kinase 3 ligand, expands and mobilizes antigen presenting cells (protein, UniProt P49771 27-235, looked up)
Fms-related tyrosine kinase 3 …: TQDCSFQHSPISSDFAVKIRELSDYLLQDYPVTVASNLQDEELCGGLWRLVLAQRWMERLKTVAGSKMQGLLERVNTEIHFVTKCAFQPPPSCLRFVQTNISRLLQETSEQLVALKPWITRQNFSRCLELQCQPDSSTLPPPWSPRPLEATAPTAPQPPLLLLLLLPVGLLLLAAAWCLHWQRTRRRTPRPGEQVPPVPSPQDLLLVEH
- number of APCs observed on the periphery of tumors (mCRC patients): significantly increased
- percentage of APCs in PBMCs (mCRC patients; from 2.4%): 8.8%
- number of leukocytes in peripheral blood (mCRC patients; from 5,900/mm^3): 11,200 /mm^3
